Measured values taken from ChEMBL document CHEMBL5620406, “Synthesis and biological evaluation of novel pyrazole amides as potent mitochondrial complex I inhibitors” (Eur J Med Chem, 2023).
Active and inactive are the calls of the source. No cut-off for these calls is given here.

Columns and labels:
[1] = Toxicity in NOD-SCID mouse xenografted with human KG-1 cells assessed as effect on ALP level at 5 mg/kg, ip qd administered 5 consecutive days per week for 24 days; format: organism-based; details: in vivo, 576 h, time 24 day
[2] = Acute toxicity in BALB/c mouse assessed as effect on AST level at 68 mg/kg, ip measured on day 14; format: organism-based; details: in vivo, 336 h, time 14 day
[3] = system: HCT-116; assay: Induction of mitochondrial membrane potential depolarization in human HCT-116 cells at 2 nM incubated for 24 hrs by JC-1 staining based flow cytometry analysis; format: functional
[4] = system: HCT-116; assay: Antiproliferative activity against human HCT-116 cells assessed as inhibition of cell growth incubated for 96 hrs by MTT assay; format: functional, cell-based; details: HCT-116, 96 h
[5] = Acute toxicity in BALB/c mouse assessed as effect on BUN level at 68 mg/kg, ip measured on day 14; format: organism-based; details: in vivo, 336 h, time 14 day
[6] = Acute toxicity in BALB/c mouse assessed as kidney damage at 40 to 68 mg/kg, ip measured on day 14 by H and E staining based analysis; format: organism-based; details: in vivo, 336 h, dose 40-68 mg/kg, time 14 day
[7] = Acute toxicity in BALB/c mouse assessed as effect on BILT level at 68 mg/kg, ip measured on day 14; format: organism-based; details: in vivo, 336 h, time 14 day
[8] = Toxicity in NOD-SCID mouse xenografted with human KG-1 cells assessed as effect on CREA level at 5 mg/kg, ip qd administered 5 consecutive days per week for 24 days; format: organism-based; details: in vivo, 576 h, time 24 day
[9] = Toxicity in NOD-SCID mouse xenografted with human KG-1 cells assessed as change in body weight at 5 mg/kg, ip qd administered 5 consecutive days per week for 24 days; format: organism-based; details: in vivo, 576 h, time 24 day
[10] = Acute toxicity in BALB/c mouse assessed as effect on ALT level at 68 mg/kg, ip measured on day 14; format: organism-based; details: in vivo, 336 h, time 14 day
[11] = system: KG-1; assay: Antiproliferative activity against human KG-1 cells assessed as inhibition of cell growth incubated for 96 hrs by MTT assay; format: functional, cell-based; details: KG-1, 96 h
[12] = system: HCT-116; assay: Induction of ROS generation in human HCT-116 cells measured for 30 mins by DCFDA-staining based flow cytometry analysis; format: functional, cell-based; details: dose <= 0.5 nM
[13] = Toxicity in NOD-SCID mouse xenografted with human KG-1 cells assessed as effect on MCH level at 5 mg/kg, ip qd administered 5 consecutive days per week for 24 days; format: organism-based; details: in vivo, 576 h, time 24 day
[14] = system: NCM460; assay: Antiproliferative activity against human NCM460 cells assessed as inhibition of cell growth incubated for 96 hrs by MTT assay; format: functional, cell-based; details: NCM460, 96 h
[15] = Toxicity in NOD-SCID mouse xenografted with human KG-1 cells assessed as effect on heart damage at 5 mg/kg, ip qd administered 5 consecutive days per week for 24 days by H and E staining based analysis; format: organism-based; details: in vivo, 576 h, time 24 day
[16] = Acute toxicity in BALB/c mouse assessed as decrease in body weight at 68 mg/kg, ip measured for 6 days; format: organism-based; details: in vivo, 144 h, time 6 day
[17] = Toxicity in NOD-SCID mouse xenografted with human KG-1 cells assessed as effect on liver damage at 5 mg/kg, ip qd administered 5 consecutive days per week for 24 days by H and E staining based analysis; format: organism-based; details: in vivo, 576 h, time 24 day
[18] = Toxicity in NOD-SCID mouse xenografted with human KG-1 cells assessed as effect on MPV at 5 mg/kg, ip qd administered 5 consecutive days per week for 24 days; format: organism-based; details: in vivo, 576 h, time 24 day
[19] = Toxicity in NOD-SCID mouse xenografted with human KG-1 cells assessed as effect on lymphocyte count at 5 mg/kg, ip qd administered 5 consecutive days per week for 24 days; format: organism-based; details: in vivo, 576 h, time 24 day
[20] = Toxicity in NOD-SCID mouse xenografted with human KG-1 cells assessed as effect on UREA level at 5 mg/kg, ip qd administered 5 consecutive days per week for 24 days; format: organism-based; details: in vivo, 576 h, time 24 day
[21] = system: KG-1; assay: Antiproliferative activity against human KG-1 cells assessed as inhibition of cell growth at 0.1 nM incubated for 96 hrs in presence of galactose by MTT assay; format: functional, cell-based
[22] = Toxicity in NOD-SCID mouse xenografted with human KG-1 cells assessed as effect on lung damage at 5 mg/kg, ip qd administered 5 consecutive days per week for 24 days by H and E staining based analysis; format: organism-based; details: in vivo, 576 h, time 24 day
[23] = Toxicity in NOD-SCID mouse xenografted with human KG-1 cells assessed as effect on TRIGL level at 5 mg/kg, ip qd administered 5 consecutive days per week for 24 days; format: organism-based; details: in vivo, 576 h, time 24 day
[24] = system: HCT-116; assay: Induction of mitochondrial dysfunction in human HCT-116 cells assessed as inhibition of OXPHOS at 2 to 10 nM incubated for 24 hrs by Seahorse XFe24 analyzer; format: functional, cell-based; details: dose 2-10 nM
[25] = Toxicity in NOD-SCID mouse xenografted with human KG-1 cells assessed as effect on ALT level at 5 mg/kg, ip qd administered 5 consecutive days per week for 24 days; format: organism-based; details: in vivo, 576 h, time 24 day
[26] = system: HCT-116; assay: Induction of ROS generation in human HCT-116 cells at 0.5 nM measured for 30 mins by DCFDA-staining based flow cytometry analysis; format: functional, cell-based
[27] = Inhibition of mitochondrial complex I (unknown origin) incubated for 15 mins by microplate reader analysis; design: species or system Homo sapiens
[28] = system: KG-1; assay: Induction of ROS generation in human KG-1 cells at 1 nM measured for 30 mins by DCFDA-staining based flow cytometry analysis; format: functional, cell-based
[29] = Toxicity in NOD-SCID mouse xenografted with human KG-1 cells assessed as effect on neutrophil count at 5 mg/kg, ip qd administered 5 consecutive days per week for 24 days; format: organism-based; details: in vivo, 576 h, time 24 day
[30] = Efflux ratio of apparent permeability across basolateral to apical membrane to apical to basolateral membrane in human Caco-2 cells incubated for 120 mins by LC-MS/MS analysis; format: ADME, cell-based
[31] = system: HCT-116; assay: Induction of mitochondrial dysfunction in human HCT-116 cells assessed as attenuation of oxygen consumption rate incubated for 24 hrs by Seahorse XFe24 analyzer; format: functional, cell-based; details: dose 2-10 nM
[32] = Acute toxicity in BALB/c mouse assessed as decrease in behavioral activity at 40 mg/kg, ip measured for 24 hrs; format: organism-based; details: in vivo
[33] = system: KG-1; assay: Induction of ROS generation in human KG-1 cells measured for 30 mins by DCFDA-staining based flow cytometry analysis; format: functional, cell-based; details: dose <= 0.5 nM
[34] = Toxicity in NOD-SCID mouse xenografted with human KG-1 cells assessed as effect on hematocrit level at 5 mg/kg, ip qd administered 5 consecutive days per week for 24 days; format: organism-based; details: in vivo, 576 h, time 24 day
[35] = Toxicity in NOD-SCID mouse xenografted with human KG-1 cells assessed as effect on GLB level at 5 mg/kg, ip qd administered 5 consecutive days per week for 24 days; format: organism-based; details: in vivo, 576 h, time 24 day
[36] = Apparent permeability across apical to basolateral side in human Caco-2 cells incubated for 120 mins by LC-MS/MS analysis; format: ADME, cell-based
[37] = Toxicity in NOD-SCID mouse xenografted with human KG-1 cells assessed as effect on spleen damage at 5 mg/kg, ip qd administered 5 consecutive days per week for 24 days by H and E staining based analysis; format: organism-based; details: in vivo, 576 h, time 24 day
[38] = Acute toxicity in BALB/c mouse assessed as animal death at 116 mg/kg, ip measured on day 14; format: organism-based; details: in vivo, time 14 day, read-out: Activity

Row | SMILES | Activity [1] | Activity [2] | Activity [3] [%] | IC50 [4] [nM] | Activity [5] | Activity [6] | Activity [7] | Activity [8] | Activity [9] | Activity [10] | IC50 [11] [nM] | Activity [12] | Activity [13] | IC50 [14] [nM] | Activity [15] | Activity [16] | Activity [17] | Activity [18] | Activity [19] | Activity [20] | also measured
1 | Cc1cc(C(=O)Nc2ccc(C(F)(F)F)cc2)nn1Cc1cccc(N2CCN(C(=O)C3CC3)CC2)c1 | Non-Toxic | Non-Toxic | 26.5 | 0.52 | Non-Toxic | Non-Toxic | Non-Toxic | Non-Toxic | Non-Toxic | Non-Toxic | 3.9 | Dose-Dependent Effect | Non-Toxic | > 1000 | Non-Toxic | Non-Toxic | Non-Toxic | Non-Toxic | Non-Toxic | Non-Toxic | Activity [21]: Active; Activity [22]: Non-Toxic; Activity [23]: Non-Toxic; Activity [24]: Active; Activity [25]: Non-Toxic; Activity [26]: Active; IC50 [27]: 830 nM; Activity [28]: Active; Activity [29]: Non-Toxic; efflux ratio at 2 h [30]: 0.53; Activity [31]: Dose-Dependent Effect; Activity [32]: Non-Toxic; Activity [33]: Dose-Dependent Effect; Activity [34]: Non-Toxic; Activity [35]: Non-Toxic; Papp A→B at 2 h [36]: 5.83 ×10⁻⁶ cm/s; Activity [37]: Non-Toxic; mortality at 336 h [38]: 33.3%
2 | Cc1cc(C(=O)Nc2ccc(OC(F)(F)F)cc2)nn1Cc1cccc(N2CCN(C(=O)C3CC3)CC2)c1 | Non-Toxic | Non-Toxic | 34.3 | 1.02 | Non-Toxic | Non-Toxic | Non-Toxic | Non-Toxic | Non-Toxic | Non-Toxic | 5.81 | Dose-Dependent Effect | Non-Toxic | > 1000 | Non-Toxic | Non-Toxic | Non-Toxic | Non-Toxic | Non-Toxic | Non-Toxic | Activity [21]: Active; Activity [22]: Non-Toxic; Activity [23]: Non-Toxic; Activity [24]: Active; Activity [25]: Non-Toxic; Activity [26]: Active; IC50 [27]: 1140 nM; Activity [28]: Active; Activity [29]: Non-Toxic; efflux ratio at 2 h [30]: 0.57; Activity [31]: Dose-Dependent Effect; Activity [32]: Non-Toxic; Activity [33]: Dose-Dependent Effect; Activity [34]: Non-Toxic; Activity [35]: Non-Toxic; Papp A→B at 2 h [36]: 5.74 ×10⁻⁶ cm/s; Activity [37]: Non-Toxic; mortality at 336 h [38]: 33.3%
